In US20150119394A1, “Insulin-Like Growth Factor-1 Receptor Inhibitors” (Merck Sharp & Dohme Corp., priority 2012, published 2015) one finds IC50 data, which are given here for 28 compounds.

pIC50: −log10 of the molar value.

This experiment deals with T1, intracellular kinase domain of human IGF-1R (GST fusion protein) (Homo sapiens, UniProt P08069).
T1 construct: IGFRK and IRK enzyme used for the assay was intracellular kinase domain of human IGF-1R; GST; made in house
T1 sequence (P08069 999-1274 limits assumed): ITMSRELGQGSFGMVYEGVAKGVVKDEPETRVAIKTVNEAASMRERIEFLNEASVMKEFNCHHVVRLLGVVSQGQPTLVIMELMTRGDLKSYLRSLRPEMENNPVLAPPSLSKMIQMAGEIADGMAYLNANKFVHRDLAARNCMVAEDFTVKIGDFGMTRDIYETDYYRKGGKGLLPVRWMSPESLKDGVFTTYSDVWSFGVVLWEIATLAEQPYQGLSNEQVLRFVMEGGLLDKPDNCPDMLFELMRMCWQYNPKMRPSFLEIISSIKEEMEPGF
Kind of experiment: In vitro IGF-1R kinase assay (HTRF). It counts as biochemical. To be noted: ATP 20 μM, IGFRK 0.25 nM. As to the method: The in vitro kinase assays using IGF-1R and IR kinase GST fusion proteins were conducted using a homogeneous time-resolved fluorescence (HTRF) format. Kinase reactions were carried out in a 384-well plate format in a final volume of 20 μL. The standard enzyme reaction buffer consisted of 50 mM Tris HCL (pH: 7.4), 1 mM EGTA, 10 mM MgCl2, 2 mM DTT, 0.01% Tween-20, IGF-1R/IR kinase enzyme, poly GT peptide substrate (Perkin Elmer [Ulight Glu-Tyr (4:1)]n) and ATP [concentration equivalent to Kmapp] […] Briefly, 2.5 μL enzyme and 2.5 μL inhibitor was preincubated for 10 minutes at 23° C. followed by the addition of 2.5 μL of poly GT substrate (final concentration of 50 nM). Reaction was initiated with the addition of 2.5 μL of ATP (final concentration of 20 μM for IGF-1R assay and 10 μM for IR assay). After 1 hour incubation at 23° C., the kinase reaction was stopped with the addition of 5 μL EDTA (final concentration of 10 mM in 20 μL). Europium cryptate—labeled antiphosphotyrosine antibody PY20 (5 μL) was added (final concentration of 2 nM) and the mixture was allowed to equilibrate for 1 hour at 23° C. followed by reading the plate in an Envision plate reader.
The intensity of light emission at 665 nm was directly proportional to the level of substrate phosphorylation. The IC50 values for inhibitors were determined by a four-parameter sigmoidal curve fit (Sigma plot or Graph pad).
IGFRK and IRK enzyme used for the assay was intracellular kinase domain of human IGF-1R and human IR cloned and expressed as GST fusion proteins using the baculovirus expression system and purified using glutathione—Sepharose column.
In general terms: Time-resolved FRET reads energy transfer from a long-lived donor to a nearby acceptor.
For orientation: pIC50 means the negative decadic logarithm of the IC50, by convention in mol/L. A high value points to a low IC50. Take `NC(=O)c1[nH]c2ccc(Cl)cc2c1S(=O)(=O)N1CCO[C@H](COc2ccc(F)c(-c3cncnc3)c2)C1` [Compound 27, (S)-5-chloro-3-((2-((4-fluoro-3-(pyrimidin-5-yl)phenoxy)methyl)morpholino)sulfonyl)-1H-indole-2-carboxamide]: the pIC50 is 8.33.

For the compound `NC(=O)c1[nH]c2ccc(Cl)cc2c1S(=O)(=O)N1CCO[C@H](COc2ccc(-c3ccccc3OC(F)(F)F)cc2)C1` [Compound 40, (S)-5-chloro-3-((2-(((2′-(trifluoromethoxy)-[1,1′-biphenyl]-4-yl)oxy)methyl)morpholino)sulfonyl)-1H-indole-2-carboxamide], the pIC50 is 6.44.

As to `COc1ccc(-c2ccc(OC[C@@H]3CN(S(=O)(=O)c4c(C(N)=O)[nH]c5ccc(Cl)cc45)CCO3)cc2C)cn1` [Compound 69, (S)-5-chloro-3-((2-((4-(6-methoxypyridin-3-yl)-3-methylphenoxy)methyl)morpholino)sulfonyl)-1H-indole-2-carboxamide], the pIC50 is less than 7.00.

As for `COc1cc(-c2ccc(OC[C@@H]3CN(S(=O)(=O)c4c(C(N)=O)[nH]c5ccc(Cl)cc45)CCO3)cc2C)ccn1` [Compound 70, (S)-5-chloro-3-((2-((4-(2-methoxypyridin-4-yl)-3-methylphenoxy)methyl)morpholino)sulfonyl)-1H-indole-2-carboxamide], the pIC50 is 7.12.

`CN(C)c1ccc(-c2ccc(OC[C@@H]3CN(S(=O)(=O)c4c(C(N)=O)[nH]c5ccc(Cl)cc45)CCO3)cc2)cn1` [Compound 34, (S)-5-chloro-3-((2-((4-(6-(dimethylamino)pyridin-3-yl)phenoxy)methyl)morpholino)sulfonyl)-1H-indole-2-carboxamide] gave a pIC50 of less than 6.00.

Turning to `NC(=O)c1[nH]c2ccc(Cl)cc2c1S(=O)(=O)N1CCO[C@H](COc2ccc(-c3ccnc(F)c3)cc2)C1` [Compound 45, (S)-5-chloro-3-((2-((4-(2-fluoropyridin-4-yl)phenoxy)methyl)morpholino)sulfonyl)-1H-indole-2-carboxamide], the negative-log IC50 (pIC50) is 7.92.

For `COc1ccccc1-c1ccc(OC[C@@H]2CN(S(=O)(=O)c3c(C(N)=O)[nH]c4ccc(Cl)cc34)CCO2)cc1` [Compound 36, (S)-5-chloro-3-((2-(((2′-methoxy-[1,1′-biphenyl]-4-yl)oxy)methyl)morpholino)sulfonyl)-1H-indole-2-carboxamide], the pIC50 was 7.09.

Turning to `NC(=O)c1[nH]c2ccc(Cl)cc2c1S(=O)(=O)N1CCO[C@H](COc2ccc(-c3cccnc3F)cc2)C1` [Compound 49, (S)-5-chloro-3-((2-((4-(2-fluoropyridin-3-yl)phenoxy)methyl)morpholino)sulfonyl)-1H-indole-2-carboxamide], the pIC50 is 8.30.

Take `NC(=O)c1[nH]c2ccc(Cl)cc2c1S(=O)(=O)N1CCO[C@H](COc2ccc(-c3ccc(C(F)(F)F)nc3)cc2)C1` [Compound 35, (S)-5-chloro-3-((2-((4-(6-(trffluoromethyl)pyridin-3-yl)phenoxy)methyl)morpholino)sulfonyl)-1H-indole-2-carboxamide]: the pIC50 is less than 6.00.

`NC(=O)c1[nH]c2ccc(Cl)cc2c1S(=O)(=O)N1CCO[C@H](COc2cncc(-c3cc(C(F)(F)F)ccc3F)c2)C1` [Compound 75]: the pIC50 is less than 6.00.

Consider `COc1ncccc1-c1ccc(OC[C@@H]2CN(S(=O)(=O)c3c(C(N)=O)[nH]c4ccc(Cl)cc34)CCO2)cc1` [Compound 44, (S)-5-chloro-3-((2-((4-(2-methoxypyridin-3-yl)phenoxy)methyl)morpholino)sulfonyl)-1H-indole-2-carboxamide], for which the pIC50 was 7.33.

The compound `NC(=O)c1[nH]c2ccc(Cl)cc2c1S(=O)(=O)N1CCO[C@H](COc2ccccc2-c2ccccc2)C1` [Compound 54, (S)-3-((2-(([1,1′-biphenyl]-2-yloxy)methyl)morpholino)sulfonyl)-5-chloro-1H-indole-2-carboxamide] had a pIC50 of less than 6.00.

Compound `NC(=O)c1[nH]c2ccc(Cl)cc2c1S(=O)(=O)N1CCO[C@H](COc2cncc(-c3ccccc3F)c2)C1` [Compound 78] had a pIC50 of less than 6.00.

Compound `Cc1cc(OC[C@@H]2CN(S(=O)(=O)c3c(C(N)=O)[nH]c4ccc(Cl)cc34)CCO2)ccc1-c1ccncc1` [Compound 67, (S)-5-chloro-3-((2-((3-methyl-4-(pyridin-4-yl)phenoxy)methyl)morpholino)sulfonyl)-1H-indole-2-carboxamide] showed a pIC50 of 8.37.

`Cc1cc(-c2ccc(OC[C@@H]3CN(S(=O)(=O)c4c(C(N)=O)[nH]c5ccc(Cl)cc45)CCO3)cc2)cc(C)n1` [Compound 82, (S)-5-chloro-3-((2-((4-(2,6-dimethylpyridin-4-yl)phenoxy)methyl)morpholino)sulfonyl)-1H-indole-2-carboxamide] showed a negative logarithm of the IC50 (pIC50) of 7.88.

As to `NC(=O)c1[nH]c2ccc(Cl)cc2c1S(=O)(=O)N1CCO[C@H](COc2cccc(-c3ccnc(Cl)c3)c2)C1` [Compound 85, (S)-5-chloro-3-((2-((3-(2-chloropyridin-4-yl)phenoxy)methyl)morpholino)sulfonyl)-1H-indole-2-carboxamide], the pIC50 was 8.01.

Take `COc1ccc(-c2ccc(OC[C@@H]3CN(S(=O)(=O)c4c(C(N)=O)[nH]c5ccc(Cl)cc45)CCO3)cc2)cn1` [Compound 37, (S)-5-chloro-3-((2-((4-(6-methoxypyridin-3-yl)phenoxy)methyl)morpholino)sulfonyl)-1H-indole-2-carboxamide]: the negative-log IC50 (pIC50) was 6.78.

Consider `NC(=O)c1[nH]c2ccc(Cl)cc2c1S(=O)(=O)N1CCO[C@H](COc2cccc3cccnc23)C1` [Compound 90, (S)-5-chloro-3-((2-((quinolin-8-yloxy)methyl)morpholino)sulfonyl)-1H-indole-2-carboxamide], for which the pIC50 was less than 7.00.

Compound `Cn1nc(-c2ccccc2)cc1OC[C@@H]1CN(S(=O)(=O)c2c(C(N)=O)[nH]c3ccc(Cl)cc23)CCO1` [Compound 92, (S)-5-chloro-3-((2-(((1-methyl-3-phenyl-1H-pyrazol-5-yl)oxy)methyl)morpholino)sulfonyl)-1H-indole-2-carboxamide] gave a pIC50 of less than 7.00.

Compound `Cc1ccc(OC[C@@H]2CN(S(=O)(=O)c3c(C(N)=O)[nH]c4ccc(Cl)cc34)CCO2)cc1-c1ccccc1F` [Compound 21, (S)-5-chloro-3-((2-(((2′-fluoro-6-methyl-[1,1′-biphenyl]-3-yl)oxy)methyl)morpholino)sulfonyl)-1H-indole-2-carboxamide] gave a pIC50 of 6.74.

Consider `Cc1cc(-c2cccc(OC[C@@H]3CN(S(=O)(=O)c4c(C(N)=O)[nH]c5ccc(Cl)cc45)CCO3)c2)ccn1` [Compound 19, (S)-5-chloro-3-((2-((3-(2-methylpyridin-4-yl)phenoxy)methyl)morpholino)sulfonyl)-1H-indole-2-carboxamide], for which the pIC50 was 8.54.

In turn, “(S)-5-chloro-3-((2-((5-(4-methoxyphenyl)pyridin-3-yl)oxy)methyl)morpholino)sulfonyl)-1H-indole-2-carboxamide [Compound 74]” showed a pIC50 of less than 6.00.

For `NC(=O)c1[nH]c2ccc(Cl)cc2c1S(=O)(=O)N1CCO[C@H](COc2ccc(-c3ccccc3F)cc2)C1` [Compound 42, (S)-5-chloro-3-((2-(((2′-fluoro-[1,1′-biphenyl]-4-yl)oxy)methyl)morpholino)sulfonyl)-1H-indole-2-carboxamide], the pIC50 was 6.92.

`Cc1ccccc1-c1ccc(OC[C@@H]2CN(S(=O)(=O)c3c(C(N)=O)[nH]c4ccc(Cl)cc34)CCO2)cc1` [Compound 41, (S)-5-chloro-3-((2-(((2′-methyl-[1,1′-biphenyl]-4-yl)oxy)methyl)morpholino)sulfonyl)-1H-indole-2-carboxamide] showed a negative-log IC50 (pIC50) of 6.74.

`NC(=O)c1[nH]c2ccc(Cl)cc2c1S(=O)(=O)N1CCO[C@H](COc2ccccc2-c2ccccc2F)C1` [Compound 62, (S)-5-chloro-3-((2-(((2′-fluoro-[1,1′-biphenyl]-2-yl)oxy)methyl)morpholino)sulfonyl)-1H-indole-2-carboxamide] showed a pIC50 of less than 6.00.

Compound `Cc1ccccc1-c1cccc(OC[C@@H]2CN(S(=O)(=O)c3c(C(N)=O)[nH]c4ccc(Cl)cc34)CCO2)c1` [Compound 10, (S)-5-chloro-3-((2-(((2′-methyl-[1,1′-biphenyl]-3-yl)oxy)methyl)morpholino)sulfonyl)-1H-indole-2-carboxamide] had a pIC50 of 6.70.

As for `Cc1cc(OC[C@@H]2CN(S(=O)(=O)c3c(C(N)=O)[nH]c4ccc(Cl)cc34)CCO2)ccc1-c1ccc(F)nc1` [Compound 73, (S)-5-chloro-3-((2-((4-(6-fluoropyridin-3-yl)-3-methylphenoxy)methyl)morpholino)sulfonyl)-1H-indole-2-carboxamide], the pIC50 was 7.52.

Turning to `NC(=O)c1[nH]c2ccc(Cl)cc2c1S(=O)(=O)N1CCO[C@H](COc2cccc(-c3ccc(F)nc3)c2)C1` [Compound 8, (S)-5-chloro-3-((2-((3-(6-fluoropyridin-3-yl)phenoxy)methyl)morpholino)sulfonyl)-1H-indole-2-carboxamide], the pIC50 was 7.81.
